Paper PMC8490515, “Neuromedin B receptor stimulation of Cav3.2 T-type Ca^2+ channels in primary sensory neurons mediates peripheral pain hypersensitivity” (Theranostics, 2021)
Ends that are not written are not given here.

Tests used:
[1] = system: T-type channels in small TG neurons; experiment: Whole-cell patch clamp of T-type channel currents (IT) in small TG neurons; assay type: cell-based, mouse; conditions: for inhibition of IT: 0.5 mM
small TG neurons = experiment: TG neuronal excitability (action potential firing, rheobase, threshold); assay type: cell-based, mouse
Description: All the procedures performed in this study were carried out in accordance with NIH guidelines and were approved by the Institutional Animal Care and Use Committee of Soochow University. TG neurons were dissociated as previously described, [23]. Briefly, TGs were harvested from 8- to 10-week-old ICR mice of either sex, cut into small pieces and treated with 2 mg/mL collagenase D (Roche) for 20 min followed by 1.5 mg/mL trypsin (Sigma) at 37 °C for 15 min. Cells were dissociated via gentle trituration with fire-polished sterilized Pasteur pipettes and centrifuged through a 15% BSA gradient to remove debris and nonneuronal cells. TG neurons were resuspended in neurobasal A (Thermo Fisher) supplemented with B27 (Thermo Fisher) and transferred onto Matrigel-coated coverslips. Patch clamp recordings were conducted 2 to 6 h after plating. In shRNA-treated knockdown experiments, TG cells were replated onto coverslips 48 h after infection.
(§1) Standard whole-cell recordings were made at room temperature (22-23 °C) as described previously, [25]. Recording electrodes were pulled from borosilicate glass microcapillary tubes (Sutter Instruments) and had resistances from 3 to 5 MΩ when filled with internal solution. Recordings were obtained using a MultiClamp 700B amplifier (Axon Instruments). Data were digitized on a personal computer using a Digidata 1440 interface under the control of the pClamp10.2 acquisition package (Molecular Devices). Data were acquired at 20 kHz with a low-pass Bessel filter at 2-5 kHz. Series resistance was compensated to 80%. The internal solution used for T-type channel current recordings contained 110 mM CsCl, 4 mM Mg-ATP, 0.3 mM Na2-GTP, 25 mM HEPES, and 10 mM EGTA, adjusted to pH 7.4 with CsOH; 295 mOsm. The external solution used for T-type channel current recordings contained 5 mM BaCl2, 140 mM TEA-Cl, 10 mM HEPES, 0.5 mM MgCl2, 5 mM CsCl, and 5.5 mM glucose, adjusted to pH 7.35 with TEA-OH; 305 mOsm. In experiments for Kv current recordings, the extracellular solution contained 140 mM choline-Cl, 1 mM MgCl2, 0.03 mM CaCl2, 5 mM KCl, 10 mM HEPES, and 10 mM glucose, adjusted to pH 7.4 with KOH; 310 mOsm. The intracellular pipette solution contained 140 mM KCl, 1 mM MgCl2, 0.5 mM CaCl2, 3 mM Mg-ATP, 0.3 mM Na2-GTP, 10 mM HEPES, and 5 mM EGTA, adjusted to pH 7.4 with KOH; 295 mOsm. The two kinetically distinct Kv currents in small TG neurons were separated by the two-step voltage protocol as previously described, [26]. The external solution for Nav current clamp recordings contained 2 mM KCl, 2 mM MgCl2, 25 mM HEPES, 2 mM CaCl2, 128 mM NaCl, and 30 mM glucose, adjusted to pH 7.4 with NaOH; 305 mOsm. The internal solution contained 10 mM NaCl, 110 mM KCl, 4 mM Mg-ATP, 0.3 mM Na2-GTP, 25 mM HEPES, and 2 mM EGTA, adjusted to pH 7.3 with KOH; 295 mOsm. Nmb was applied to a patched cell by an air-pressure microinjector (Pneumatic PicoPump, model PV830, WPI).
We next determined the role of the Nmb-induced T-type channel response in regulating TG neuronal excitability. […] Furthermore, application of Nmb (100 nM) to TG neurons decreased the peak amplitude of the transient outward K^+ channel currents (A-type currents or IA) (decrease of 22.3 ± 3.9%; Figure 6C), while the sustained delayed rectifier K^+ channel currents (IDR) remained unaffected (decrease of 1.9 ± 1.6%; Figure 6C). […] To further test this hypothesis, a shorter (1 ms) current injection was applied to avoid contaminating the action potential waveform with the stimulus. Neurons were manually hyperpolarized to membrane potentials of -75 mV to maximize the number of T-type channels available for activation. With increasingly stronger current injections (+200 pA), the threshold current necessary to evoke an overshooting AP was determined for each neuron in the presence or absence of Nmb.

T-type channels = conditions: cited from earlier work; for IT inhibition: dopamine in retinal horizontal cells, adrenaline in newt olfactory receptor cells, prevented by PKA inhibitors, ref [56]; for current density of IT: via PKC, insulin-like growth factor in dorsal root ganglion neurons, angiotensin-II in neonatal cardiomyocytes, ref [28], [60]
Description: In contrast, stimulation of PKC either by insulin-like growth factor in dorsal root ganglion neurons or by angiote ...

PKA = PKA activity assay in TG cells (Pep Tag); assay type: cell-based, mouse; conditions: pretreatment 10 µM compound C, 100 nM Nmb 30 min
Description: PKA enzymatic activity in cell lysates was measured using the Pep Tag assay for nonradioactive detection of PKA (Promega, Madison, WI, USA) as described in our previous studies. Briefly, TG cells were cultured in 12-well plates and preincubated with BIM23042 (0.5 μM) or compound C (10 μM) followed by exposure to 100 nM Nmb for 30 min. TG cells were washed with ice-cold phosphate-buffered saline and placed on ice. PKA was extracted from the cell lysates with cold PKA extraction buffer (25 mM Tris-HCl, pH 7.4, 0.5 mM EDTA, 0.5 mM EGTA, 10 mM β-mercaptoethanol, 1 μg/mL leupeptin and 1 μg/mL aprotinin). The assay was conducted according to the manufacturer's instructions.

Cav3.2 (α1H) = experiment: Cav3.2 channel currents in HEK293 cells coexpressing NmbR; assay type: cell-based, human
Description: as §1, with “mOsm.” for “mOsm. The two kinetically distinct Kv currents in small TG neurons were separated by the two-step voltage protocol as previously described, [26]. The external solution for Nav current clamp recordings contained 2 mM KCl, 2 mM MgCl2, 25 mM HEPES, 2 mM CaCl2, 128 mM NaCl, and 30 mM glucose, adjusted to pH 7.4 with NaOH; 305 mOsm. The internal solution contained 10 mM NaCl, 110 mM KCl, 4 mM Mg-ATP, 0.3 mM Na2-GTP, 25 mM HEPES, and 2 mM EGTA, adjusted to pH 7.3 with KOH; 295 mOsm. Nmb was applied to a patched cell by an air-pressure microinjector (Pneumatic PicoPump, model PV830, WPI).”

Nc1nc2c(ncn2[C@@H]2O[C@H](COP(=O)(O)OP(O)(O)=S)[C@@H](O)[C@H]2O)c(=O)[nH]1 [GDP-β-S]
Nmb-induced increase in IT with GDP-β-S ([1]; 1 mM intracellular GDP-β-S, 100 nM Nmb, n = 6): 2.3 ± 2.7%

[Cl][Ni][Cl] [NiCl2]
decrease of the remaining inward current (IT) ([1]; 50 μM, -110 mV Vh to -40 mV, 22-23 °C, n = 5): 79.2%
inhibition of IT at the end of recording after Nmb ([1]; 0.5 mM NiCl2 added at end of recording after 100 nM Nmb): almost abrogated the IT
inhibition of IT ([1]; n = 5): almost completely abolished
inhibition of IT ([1]; n = 5, listed as Ni^2+): completely blocked IT
effect on Nmb-induced decrease in AP threshold (small TG neurons; preincubation 50 µM NiCl2, 100 nM Nmb, n = 9): completely prevented
effect on Nmb-mediated increase in AP firing rate / hyperexcitability (small TG neurons; pretreatment KT-5720 1 µM (n = 12) or NiCl2 50 μM (n = 11), 100 nM Nmb): completely abolish

CCCCCCCCCCCCCC(=O)O[C@@H]1[C@@H](C)[C@@]2(O)[C@@H](C=C(CO)C[C@]3(O)C(=O)C(C)=C[C@@H]23)[C@@H]2C(C)(C)[C@]12OC(C)=O [PMA, phorbol 12-myristate 13-acetate]
effect of PMA on IT ([1]; 5 μM, n = 7): increase in IT

COc1ccc2c(c1)CC[C@@H]1[C@@H]2CC[C@]2(C)[C@@H](NCCCCCCN3C(=O)C=CC3=O)CC[C@@H]12 [U73122]
Nmb-induced increase in IT after U73122 ([1]; pretreatment 3 μM U73122 (legend: 1 μM), 100 nM Nmb, n = 8): 31.8 ± 4.2%

CNC[C@H](O)c1ccc(O)c(O)c1 [adrenaline]
IT inhibition (T-type channels): IT inhibition

c1cc(-c2cnn3cc(-c4ccc(OCCN5CCCCC5)cc4)cnc23)ccn1 [compound C]
effect on Nmb-induced increase in PKA activity (PKA): abrogated
Nmb-induced increase in IT after compound C ([1]; preincubation 10 µM compound C, 100 nM Nmb, n = 7): 2.6 ± 2.8%
Nmb-induced increase of Cav3.2 currents after compound C (Cav3.2 (α1H); pretreatment 10 µM compound C, 100 nM Nmb, n = 8): 1.4 ± 2.9%

NCCc1ccc(O)c(O)c1 [dopamine]
IT inhibition (T-type channels): IT inhibition

C=C[C@@]1(C)CC(=O)[C@]2(O)[C@@]3(C)[C@@H](O)CCC(C)(C)[C@@H]3[C@H](O)[C@H](OC(C)=O)[C@@]2(C)O1 [forskolin]
increase of IT by forskolin ([1]; 10 μM, n = 7): 38.3 ± 2.1%

PKC 19-36: a pseudosubstrate peptide inhibitor of PKC (RFARKGALRQKNVHEVKD; UniProt P17252 19-36, looked up, fragment)
effect on PMA-induced increase in IT ([1]; 10 μM PKC 19-36, 5 μM PMA, n = 5): abrogated the increase in IT
Nmb-induced increase in IT with PKC 19-36 ([1]; dialysis 10 µM PKC 19-36, 100 nM Nmb, n = 7): 31.5 ± 3.5%
Nmb-induced increase of Cav3.2 currents with PKC 19-36 (Cav3.2 (α1H); dialysis 10 μM PKC 19-36, 100 nM Nmb, n = 9): 30.8 ± 2.3%

QEHAQEPERQYMHIGTMVEFAYALVGK [Gβγ antagonist QEHA peptide]
Nmb-induced increase in IT with QEHA ([1]; dialysis 10 μM QEHA, 100 nM Nmb, n = 6): 3.2 ± 2.5%

SKEEKSDKER WQHLADLADFALAMKDT [the scrambled peptide of QEHA]
Nmb-induced increase in IT with SKEE ([1]; intracellular 10 μM SKEE, 100 nM Nmb, n = 7): 33.2 ± 3.5%

angiotensin-II: angiotensin-II in neonatal cardiomyocytes (DRVYIHPF; Angiotensin-2; UniProt P01019 25-32, looked up)
current density of IT (T-type channels): significantly increases the current density

cholera toxin
Nmb-induced increase in IT after cholera toxin (Gs) [1]: 33.5 ± 2.9%

corticotrophin-releasing factor: T-type channel inhibition induced by corticotrophin-releasing factor (SEEPPISLDLTFHLLREVLEMARAEQLAQQAHSNRKLMEII; ends and bridges not checked; UniProt P06850 154-194, looked up)
T-type channel inhibition (T-type channels; MN9D dopaminergic cells, prevented by PKC inhibitors, ref [59]): T-type channel inhibition

insulin-like growth factor
current density of IT (T-type channels): significantly increases the current density
